Measurements: US8329651B2, “Method for renal disease diagnosis and prognosis using annexin A1 and Rab23 as markers” (National Defense Medical Center, priority 2009, dated 2012)

Assay: Adriamycin-induced focal segmental glomerulosclerosis (FSGS) in mice: urine protein, serum creatinine, BUN
Format: in vivo
Details: 8-week-old BALB/c mice, adriamycin 0.1 mg/per 10 g body weight intravenously, day 15
Experimental: 8-week-old BALB/c mice were injected with adriamycin (0.1 mg/per 10 g body weight) intravenously to induce Focal Segmental Glomerulosclerosis (FSGS). Blood, urine, and kidney tissue samples were collected at days 0, 7, 15, and 20 after injection. More specifically, the blood samples were collected from the retro-orbital venous plexus and the urine samples were collected by gentle abdominal massage. The samples were centrifuged to remove insoluble substances and then stored in liquid nitrogen. When urine proteins are to be measured, the corresponding samples were collected on parafilms. The modified Bradford protein assay was performed to examine urine protein concentration, the picric acid colorimetric kit (Sigma 555-1) was used for detecting creatinine, and an urease assay kit provided by Sigma (640-5) was used for determining the level of blood urea nitrogen (BUN).

## COc1cccc2c1C(=O)c1c(O)c3c(c(O)c1C2=O)C[C@@](O)(C(=O)CO)C[C@@H]3O[C@H]1C[C@H](N)[C@H](O)[C@H](C)O1 [adriamycin]
Control mice 0.48±0.03
  serum creatinine level: 2.02 ± 0.17 mg/dL
Control mice 0.59±0.082
  urine protein level: 16.84 ± 3.13 mg/mL
Control mice 21.85±1.99
  BUN (blood urea nitrogen) level: 71.42 ± 8.09 mg/dL
